We go through 12 molecules from PubChem BioAssay (NCI).

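Dose response: 5 concentrations. Exposure: 48 h. Format: 96-well plates. Endpoint: linear interpolation; highest concentration if not reached. GI50 = concentration required for 50% inhibition of growth. TGI is the concentration that stops growth completely.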 Where only a bound is given, the exact number is not on record here.

Holding throughout (assay): DTP human tumour cell line panel, 48 h
Experiment [1] has as its system RXF 393 renal.
Experiment [2] deals with HCT-15 colon.
In experiment [3] the test system is UO-31 renal.
For experiment [4], the system named is CCRF-CEM leukemia.
The subject of experiment [5] is OVCAR-4 ovarian.
Experiment [6] has as its system SNB-19 CNS.
In experiment [7] the test system is CAKI-1 renal.
For experiment [8], the system named is TK-10 renal.
Experiment [9] has as its system A498 renal.
Experiment [10] relates to SK-MEL-2 melanoma.

What is called TGI is the concentration giving total growth inhibition. On to `CN1CCN(c2nc3cc(F)ccc3n3cccc23)CC1`, for which the TGI in experiment [1], in [2], in experiment [3], in [4], in experiment [5] and in [6] was over 100 µM throughout. The TGI in experiment [7] was 79 µM; in [8] it was over 100 µM.

On to `Cc1ccc([N+]2=NC(c3ccccc3)=NN(c3ccccc3)C2)cc1`, for which the concentration for total growth inhibition (TGI) was over 100 µM in experiment [9]; over 100 µM in [1]; over 100 µM in experiment [2]; over 100 µM in experiment [3]; 79.9 µM in [4]; over 100 µM in experiment [5]. For the same molecule, the concentration for total growth inhibition (TGI) in experiment [6] and in experiment [8] was over 100 µM throughout.

As for `COC(=O)C(C)Oc1ccc(O)cc1` (centres undefined), the TGI in [9], in experiment [2], in [3], in experiment [4], in experiment [5] and in [6] was over 100 µM throughout. Also, the TGI in [7] and in [8] was over 100 µM in each case.

Take `COC(=N)CCCl`: the TGI in experiment [1], in [2], in experiment [3], in experiment [4], in experiment [5] and in experiment [6] was over 100 µM each time. Moreover, the total growth inhibition concentration (TGI) in experiment [7] and in experiment [8] was over 100 µM each time.

Consider `COC1CC(n2cc(F)c(N)nc2=O)OC1CO` (centres undefined), for which the TGI in [1], in experiment [2], in experiment [10], in [3], in experiment [4] and in [5] was over 100 µM in each case. In addition, the TGI in experiment [6], in [7] and in [8] was over 100 µM each time.

By GI50 is commonly meant the concentration that inhibits growth by half. Consider `CSc1nc2ccc(C)cc2cc1/C=C1/C=C(c2ccccc2)NC1=O`, for which the GI50 in experiment [1] is 3.06 µM; in [2], 14 µM; in experiment [10], 6.31 µM; in [3], 2.58 µM; in experiment [4], 26.4 µM; in experiment [5], 0.296 µM. In addition, the GI50 in [6] is 4.6 µM; in experiment [7] it was 1.21 µM; in [8] it was 2.63 µM. Further, the total growth inhibition concentration (TGI) was over 100 µM in [2]; 30.4 µM in experiment [10]; 12.4 µM in experiment [3]; over 100 µM in experiment [4]; 1.03 µM in experiment [5]; 33.5 µM in experiment [6]. For the same molecule, the values for the TGI in experiment [7] and in experiment [8] were 10.9 µM and 8.46 µM, respectively.

Take `CC(=O)/C(=C/N1CCN(C(=O)c2ccco2)C1=S)C(=O)c1ccccc1`: the GI50 in experiment [2] was 4.71 µM; in experiment [3], 8.8 µM; in experiment [5] it was 20.1 µM; in [6], 16.3 µM; in experiment [7], 9.29 µM; in experiment [8] it was 10.6 µM. The total growth inhibition concentration (TGI) in experiment [2] is 18.9 µM; in experiment [3] it was 18.1 µM; in experiment [5], 37.4 µM; in [6] it was over 50 µM; in [7], 32.5 µM; in experiment [8] it was 28.6 µM.

Consider `N#CNC1=NCCC(=O)N1CCc1c[nH]c2ccccc12`, for which the TGI in experiment [1], in experiment [2], in experiment [3], in experiment [4], in [5] and in experiment [6] was over 100 µM each time. Besides, the TGI in experiment [8] was over 100 µM.

As for `CCCCOP1(=O)CC(C)=C(Cl)C(C)(OC)C1` (centres undefined), the TGI in experiment [1] was over 100 µM; in experiment [2] it was over 100 µM; in experiment [10], over 100 µM; in experiment [3] it was over 100 µM; in experiment [4] it was 98.7 µM; in [5], over 100 µM. The TGI in experiment [6] and in experiment [8] was over 100 µM each time.

With `CC1=CC(=O)N2C(OC[C@@H]2c2ccccc2)O1` (some centres undefined), the concentration for total growth inhibition (TGI) in experiment [1], in experiment [2], in experiment [10], in experiment [3], in experiment [4] and in [5] was over 100 µM throughout. Further, the concentration for total growth inhibition (TGI) in experiment [6], in experiment [7] and in experiment [8] was over 100 µM throughout.

In the case of `C=CCO[C@H]1CC[C@@]2(C)C(CC[C@]3(C)C2CC=C2[C@@H]4[C@@H](C)C(C)CC[C@]4(C(=O)O)CCC23C)C1(C)C` (some centres undefined), the TGI was 32.4 µM in [9]; 22.8 µM in experiment [1]; 31.2 µM in [3]; 28.9 µM in experiment [4]; 39.3 µM in [5]; 32.2 µM in experiment [6]. Moreover, the TGI worked out at 33.2 µM in experiment [7] and 32.2 µM in experiment [8].

As for `C#C[C@@H](CCCC)OC(=O)N[C@H](C)c1ccccc1`, the TGI was 53.1 µM in [10]; 65.4 µM in experiment [3]; over 100 µM in experiment [4]; over 100 µM in experiment [5]; over 100 µM in experiment [6]; over 100 µM in experiment [7]. The molecule also gave a TGI in experiment [8] of over 100 µM.
